{"source": "patent US20020022059A1", "about": "“Water treatment process” (priority 1996, published 2002)", "key": {"algae bloom": {"test_system": "algae bloom", "assay": "Application of algicide-flocculant treatment against an algae bloom in a South Texas water plant", "settings": "clarifier"}, "[1]": {"settings": "pH 7, or more alkaline water", "excerpt": "Since the incoming raw water most often has a pH of 7 or above, this causes the crystals to acquire a coating of copper hydroxide that inhibits dissolution of the blue vitriol crystals into the water."}}, "data": [{"smiles": "O.O.O.O.O.O=S(=O)([O-])[O-].[Cu+2]", "note": "[blue vitriol crystals, cupric sulfate pentahydrate]", "values": [{"measurement": "outcome of algae bloom", "setting": "algae bloom", "value": "had battled an algae bloom"}, {"measurement": "dissolution in water", "setting": "[1]", "value": "do not dissolve very well"}]}]}
